Where two headings read alike, the source gives them in different places.
What was measured:
myrosinase [1] = test: Conversion of glucoraphanin to sulforaphane in Simulated Intestinal Fluid; assay type: biochemical, broccoli; settings: 0.25 to 1.00 mmol/Liter ascorbic acid, 38° C., especially at the earlier stages, FIG. 4
Experimental: Simulated Intestinal Fluid (SIF) powder, a commercially supplied concentrate closely approximating the human intestinal content in terms of composition, pH and ionic strength, was used. The experiment utilized a USP Dissolution Apparatus 2 (paddles), where into six dissolution vessels 500 mL of Simulated Intestinal Fluid was dispensed, along with 150 mg of freeze-dried broccoli sprout powder as a source of myrosinase. […] Aliquots were withdrawn every 15 minutes, and assayed for sulforaphane.

myrosinase [2] = test: Equimolar conversion of glucoraphanin to sulforaphane by myrosinase, with and without ascorbic acid; assay type: biochemical; settings: Part 2; broccoli seed extract fixed at 250 mg
Experimental: A two-part experiment was conducted to further elucidate the role of ascorbic acid in modulating myrosinase activity. […] A control sample contained no ascorbic acid, and the enzymatic conversion proceeded unassisted by a co-factor. PART 1. […] PART 2. While keeping the amount of broccoli seed extract fixed at 250 mg, the concentration of ascorbic acid was varied from 0.4 mmol/Liter to 3.8 mmol/Liter.

[3] = test system: broccoli sprout-derived myrosinase; test: Hydrolysis of glucoraphanin (broccoli seed extract) by myrosinase as a function of ascorbic acid concentration; assay type: biochemical; settings: 38° C.; for Slope (rate of glucoraphanin consumption): linear regression 0-60 min
Experimental: About 250 mg of broccoli seed extract containing about 12% (w/w) glucoraphanin were subjected to hydrolysis by a fixed concentration of broccoli sprout-derived myrosinase in the presence of variable concentration of ascorbic acid, ranging from 0 to 600 μmoles/Liter. The reaction mixtures were thermostated at 38° C.; aliquots were withdrawn every 15 minutes for 60 minutes, and concentration of glucoraphanin determined chromatographically. The rate of glucoraphanin consumption was interpreted as the rate its conversion to sulforaphane. Graphical representation of glucoraphanin content reduction as a function of increasing ascorbic acid concentration results in a series of linear plots; the slopes of the linear regression lines reflect the rate of glucoraphanin consumption, in μmoles/minute. It is apparent that in the presence of 600 μmoles/Liter concentration of ascorbic acid, the reaction rate increased 13-fold relative to that which proceeded in the absence of modulatory effects of ascorbic acid.

[4] = test system: monocyte chemoattractant protein (MCP-1); settings: 24 hours, RAW cells activated with 1 μg/mL LPS
Experimental: The following study was conducted to determine the effect of the combination of sulforaphane and magnesium sulfate (MgSO4) on expression of monocyte chemoattractant protein (MCP-1), which is a mediator of inflammation. MCP-1 is chemokine which attracts monocytes, macrophages, and lymphocytes to sites of inflammation. A reduction in MCP-1 is beneficial for the health of endothelial cells which line the cardiovascular system.
In the study, RAW cells were activated with 1 μg/mL lipopolysaccharide (LPS) for 30 minutes to stimulate the induction of MCP-1 gene expression. Following LPS treatment, the cells were treated with one of the following: (i) DMSO (vehicle control), (ii) 0.5 μM SFN, (iii) 2.5 mM MgSO4, or (iv) the combination of 0.5 μM SFN and 2.5 mM MgSO4. After treatment for 24 hours, the MCP-1 levels were assessed via quantitative RT-PCR.

heme oxygenase-1 (HO-1) = settings: oral administration; mammary epithelium; Sprague-Dawley rats; cited from earlier work
[5] = test system: NAD(P)H:quinine oxidoreductase (NQO1); settings: oral administration; mammary epithelium; Sprague-Dawley rats; cited from earlier work
mammary tumors = settings: Sprague-Dawley rats; cited from earlier work

O=C1O[C@H]([C@@H](O)CO)C(O)=C1O [Ascorbic Acid, ascorbic acid]
relation of sulforaphane yield to ascorbic acid concentration (myrosinase [1]): direct correlation between larger yield of sulforaphane and higher concentrations of ascorbic acid
ascorbic acid concentration up to which myrosinase-promoted conversion increases apparently linearly, then levels off (myrosinase [2]): about 2 mmol/L
increase of reaction rate (glucoraphanin consumption) ([3]; 600 μmoles/Liter ascorbic acid, relative to absence of ascorbic acid): 13 fold
Slope (rate of glucoraphanin consumption) ([3]; ascorbic acid 50 μM): -0.286 µmol/min
glucoraphanin (GR) content ([3]; ascorbic acid 50 μM, time 0 min): 93.36 µmol
glucoraphanin (GR) content ([3]; ascorbic acid 50 μM, time 15 min): 89.20 µmol
glucoraphanin (GR) content ([3]; ascorbic acid 50 μM, time 30 min): 84.24 µmol
glucoraphanin (GR) content ([3]; ascorbic acid 50 μM, time 45 min): 80.30 µmol
glucoraphanin (GR) content ([3]; ascorbic acid 50 μM, time 60 min): 76.36 µmol
Slope (rate of glucoraphanin consumption) ([3]; ascorbic acid 125 μM): -0.5622 µmol/min
glucoraphanin (GR) content ([3]; ascorbic acid 125 μM, time 0 min): 93.36 µmol
glucoraphanin (GR) content ([3]; ascorbic acid 125 μM, time 15 min): 84.52 µmol
glucoraphanin (GR) content ([3]; ascorbic acid 125 μM, time 30 min): 75.92 µmol
glucoraphanin (GR) content ([3]; ascorbic acid 125 μM, time 45 min): 68.09 µmol
glucoraphanin (GR) content ([3]; ascorbic acid 125 μM, time 60 min): 59.41 µmol
Slope (rate of glucoraphanin consumption) ([3]; ascorbic acid 250 μM Filtered): -0.4714 µmol/min
glucoraphanin (GR) content ([3]; ascorbic acid 250 μM Filtered, time 0 min): 93.36 µmol
glucoraphanin (GR) content ([3]; ascorbic acid 250 μM Filtered, time 15 min): 86.31 µmol
glucoraphanin (GR) content ([3]; ascorbic acid 250 μM Filtered, time 30 min): 79.44 µmol
glucoraphanin (GR) content ([3]; ascorbic acid 250 μM Filtered, time 45 min): 71.94 µmol
glucoraphanin (GR) content ([3]; ascorbic acid 250 μM Filtered, time 60 min): 65.18 µmol
Slope (rate of glucoraphanin consumption) ([3]; ascorbic acid 250 μM): -0.7901 µmol/min
glucoraphanin (GR) content ([3]; ascorbic acid 250 μM, time 0 min): 93.36 µmol
glucoraphanin (GR) content ([3]; ascorbic acid 250 μM, time 15 min): 80.95 µmol
glucoraphanin (GR) content ([3]; ascorbic acid 250 μM, time 30 min): 69.06 µmol
glucoraphanin (GR) content ([3]; ascorbic acid 250 μM, time 45 min): 57.63 µmol
glucoraphanin (GR) content ([3]; ascorbic acid 250 μM, time 60 min): 45.76 µmol
Slope (rate of glucoraphanin consumption) ([3]; ascorbic acid 400 μM): -1.007 µmol/min
glucoraphanin (GR) content ([3]; ascorbic acid 400 μM, time 0 min): 93.36 µmol
glucoraphanin (GR) content ([3]; ascorbic acid 400 μM, time 15 min): 78.32 µmol
glucoraphanin (GR) content ([3]; ascorbic acid 400 μM, time 30 min): 62.78 µmol
glucoraphanin (GR) content ([3]; ascorbic acid 400 μM, time 45 min): 47.67 µmol
glucoraphanin (GR) content ([3]; ascorbic acid 400 μM, time 60 min): 33.15 µmol
Slope (rate of glucoraphanin consumption) ([3]; ascorbic acid 600 μM): -1.2 µmol/min
glucoraphanin (GR) content ([3]; ascorbic acid 600 μM, time 0 min): 93.36 µmol
glucoraphanin (GR) content ([3]; ascorbic acid 600 μM, time 15 min): 75.02 µmol
glucoraphanin (GR) content ([3]; ascorbic acid 600 μM, time 30 min): 55.66 µmol
glucoraphanin (GR) content ([3]; ascorbic acid 600 μM, time 45 min): 37.50 µmol
glucoraphanin (GR) content ([3]; ascorbic acid 600 μM, time 60 min): 22.09 µmol

O=S(=O)([O-])[O-].[Mg+2] [magnesium sulfate]
decrease in MCP-1 levels ([4]; 2.5 mM MgSO4): approximately 16%

C[S+]([O-])CCCCN=C=S (centres unmarked) [sulforaphane, 1-isothiocyanato-4-methylsulfinylbutane]
elevated immunostaining of HO-1 (heme oxygenase-1 (HO-1)): 4 fold
increase in NQO1 enzymatic activity [5]: 3 fold
blocking the formation of mammary tumors (mammary tumors): effective in blocking the formation of mammary tumors
decrease in MCP-1 levels ([4]; 0.5 μM SFN): approximately 29%
